Numbers after ± are expanded uncertainties.
Test: excess molar enthalpy (molar enthalpy of mixing); xn = mol fraction of the nth substance listed
Conditions: 101 kPa, Liquid, Flow calorimetry

Structure (SMILES): CC1(C)C(=O)[C@]2(C)CC[C@H]1C2 [(-)-fenchone] + CCO
- excess molar enthalpy (283.15 K, x1 = 0.048): 0.0418 ± 0.00311 kcal/mol
- excess molar enthalpy (283.15 K, x1 = 0.097): 0.0805 ± 0.00502 kcal/mol
- excess molar enthalpy (283.15 K, x1 = 0.195): 0.141 ± 0.0086 kcal/mol
- excess molar enthalpy (283.15 K, x1 = 0.286): 0.184 ± 0.0112 kcal/mol
- excess molar enthalpy (283.15 K, x1 = 0.395): 0.218 ± 0.0131 kcal/mol
- excess molar enthalpy (283.15 K, x1 = 0.488): 0.23 ± 0.0139 kcal/mol
- excess molar enthalpy (283.15 K, x1 = 0.601): 0.229 ± 0.0139 kcal/mol
- excess molar enthalpy (283.15 K, x1 = 0.701): 0.21 ± 0.0127 kcal/mol
- excess molar enthalpy (283.15 K, x1 = 0.801): 0.172 ± 0.0105 kcal/mol
- excess molar enthalpy (283.15 K, x1 = 0.894): 0.104 ± 0.00645 kcal/mol
- excess molar enthalpy (283.15 K, x1 = 0.945): 0.0569 ± 0.00382 kcal/mol
- excess molar enthalpy (298.15 K, x1 = 0.048): 0.0476 ± 0.00335 kcal/mol
- excess molar enthalpy (298.15 K, x1 = 0.097): 0.0913 ± 0.00574 kcal/mol
- excess molar enthalpy (298.15 K, x1 = 0.195): 0.159 ± 0.0098 kcal/mol
- excess molar enthalpy (298.15 K, x1 = 0.286): 0.209 ± 0.0127 kcal/mol
- excess molar enthalpy (298.15 K, x1 = 0.395): 0.249 ± 0.0151 kcal/mol
- excess molar enthalpy (298.15 K, x1 = 0.488): 0.265 ± 0.016 kcal/mol
- excess molar enthalpy (298.15 K, x1 = 0.601): 0.262 ± 0.0158 kcal/mol
- excess molar enthalpy (298.15 K, x1 = 0.701): 0.239 ± 0.0146 kcal/mol
- excess molar enthalpy (298.15 K, x1 = 0.801): 0.193 ± 0.0117 kcal/mol
- excess molar enthalpy (298.15 K, x1 = 0.894): 0.12 ± 0.00741 kcal/mol
- excess molar enthalpy (298.15 K, x1 = 0.945): 0.065 ± 0.00454 kcal/mol
- excess molar enthalpy (313.15 K, x1 = 0.048): 0.0528 ± 0.00382 kcal/mol
- excess molar enthalpy (313.15 K, x1 = 0.097): 0.102 ± 0.00645 kcal/mol
- excess molar enthalpy (313.15 K, x1 = 0.195): 0.178 ± 0.0108 kcal/mol
- excess molar enthalpy (313.15 K, x1 = 0.286): 0.234 ± 0.0141 kcal/mol
- excess molar enthalpy (313.15 K, x1 = 0.395): 0.278 ± 0.0167 kcal/mol
- excess molar enthalpy (313.15 K, x1 = 0.488): 0.297 ± 0.0179 kcal/mol
- excess molar enthalpy (313.15 K, x1 = 0.601): 0.291 ± 0.0177 kcal/mol
- excess molar enthalpy (313.15 K, x1 = 0.701): 0.264 ± 0.016 kcal/mol
- excess molar enthalpy (313.15 K, x1 = 0.801): 0.211 ± 0.0129 kcal/mol
- excess molar enthalpy (313.15 K, x1 = 0.894): 0.131 ± 0.00813 kcal/mol
- excess molar enthalpy (313.15 K, x1 = 0.945): 0.071 ± 0.00502 kcal/mol
- excess molar enthalpy (328.15 K, x1 = 0.048): 0.0586 ± 0.00406 kcal/mol
- excess molar enthalpy (328.15 K, x1 = 0.097): 0.112 ± 0.00693 kcal/mol
- excess molar enthalpy (328.15 K, x1 = 0.195): 0.196 ± 0.012 kcal/mol
- excess molar enthalpy (328.15 K, x1 = 0.286): 0.258 ± 0.0155 kcal/mol
- excess molar enthalpy (328.15 K, x1 = 0.395): 0.306 ± 0.0186 kcal/mol
- excess molar enthalpy (328.15 K, x1 = 0.488): 0.326 ± 0.0198 kcal/mol
- excess molar enthalpy (328.15 K, x1 = 0.601): 0.318 ± 0.0194 kcal/mol
- excess molar enthalpy (328.15 K, x1 = 0.701): 0.286 ± 0.0174 kcal/mol
- excess molar enthalpy (328.15 K, x1 = 0.801): 0.227 ± 0.0139 kcal/mol
- excess molar enthalpy (328.15 K, x1 = 0.894): 0.14 ± 0.00884 kcal/mol
- excess molar enthalpy (328.15 K, x1 = 0.945): 0.076 ± 0.00526 kcal/mol

From the NIST ThermoML archive (doi:10.1016/j.jct.2013.09.024)
